Measurements as given in article PMC5951806, “Rapid labelling and covalent inhibition of intracellular native proteins using ligand-directed N-acyl-N-alkyl sulfonamide” (Nature Communications, 2018).

Tests used:
Test in all cases: TMT LC-MSMS of 11-labelled proteins
Type in all cases: cell-based
[1] = biological target: Fatty acid synthase (FASN) (Homo sapiens, UniProt P49327)
[2] = biological target: 2,4-dienoyl-CoA reductase, mitochondrial (DECR1) (Homo sapiens, UniProt Q16698)
[3] = biological target: T1, Isoform 2 of Calcium-binding mitochondrial carrier protein Aralar2 (SLC25A13) (Homo sapiens, UniProt Q9UJS0)
T1 sequence (Q9UJS0 2-676 isoform Q9UJS0-2): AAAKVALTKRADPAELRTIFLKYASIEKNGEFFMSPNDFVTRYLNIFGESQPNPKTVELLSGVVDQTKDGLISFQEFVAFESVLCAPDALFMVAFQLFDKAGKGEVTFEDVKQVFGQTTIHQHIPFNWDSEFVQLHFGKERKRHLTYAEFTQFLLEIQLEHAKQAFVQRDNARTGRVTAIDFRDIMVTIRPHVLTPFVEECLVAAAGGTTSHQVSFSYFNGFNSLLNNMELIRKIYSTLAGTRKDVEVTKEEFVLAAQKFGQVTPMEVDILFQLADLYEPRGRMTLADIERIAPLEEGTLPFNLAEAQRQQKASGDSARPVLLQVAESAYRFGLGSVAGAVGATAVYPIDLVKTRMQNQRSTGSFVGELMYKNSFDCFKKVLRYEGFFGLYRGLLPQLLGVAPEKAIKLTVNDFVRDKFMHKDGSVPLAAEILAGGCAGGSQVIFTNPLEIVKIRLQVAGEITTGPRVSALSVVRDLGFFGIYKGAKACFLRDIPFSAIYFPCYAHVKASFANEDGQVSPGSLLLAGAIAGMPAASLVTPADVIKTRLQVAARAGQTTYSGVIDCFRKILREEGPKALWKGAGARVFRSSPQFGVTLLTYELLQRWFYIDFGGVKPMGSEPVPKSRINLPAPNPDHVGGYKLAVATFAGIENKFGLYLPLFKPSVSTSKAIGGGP

[4] = sheet Exp1, SKBR3 cells, 11 0.5 µM 3 h vs DMSO
[5] = sheet Exp1, SKBR3 cells, 11 0.5 µM 3 h vs with PU-H71 10 µM
[6] = sheet Merged, SKBR3 cells, 11 0.5 µM 3 h vs DMSO
[7] = sheet Merged, SKBR3 cells, 11 0.5 µM 3 h vs with PU-H71 10 µM

Chain of 2,4-dienoyl-CoA reductase, mitochondrial (DECR1) (Q16698 35-335): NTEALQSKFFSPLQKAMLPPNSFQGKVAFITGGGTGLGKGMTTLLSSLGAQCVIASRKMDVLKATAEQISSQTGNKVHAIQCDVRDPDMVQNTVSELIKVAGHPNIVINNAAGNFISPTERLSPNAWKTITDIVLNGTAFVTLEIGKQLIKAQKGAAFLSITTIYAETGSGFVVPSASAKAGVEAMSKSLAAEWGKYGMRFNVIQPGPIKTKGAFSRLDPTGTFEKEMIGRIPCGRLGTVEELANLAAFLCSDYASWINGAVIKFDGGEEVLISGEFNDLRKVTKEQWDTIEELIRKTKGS
Chain of Fatty acid synthase (FASN) (P49327 whole entry): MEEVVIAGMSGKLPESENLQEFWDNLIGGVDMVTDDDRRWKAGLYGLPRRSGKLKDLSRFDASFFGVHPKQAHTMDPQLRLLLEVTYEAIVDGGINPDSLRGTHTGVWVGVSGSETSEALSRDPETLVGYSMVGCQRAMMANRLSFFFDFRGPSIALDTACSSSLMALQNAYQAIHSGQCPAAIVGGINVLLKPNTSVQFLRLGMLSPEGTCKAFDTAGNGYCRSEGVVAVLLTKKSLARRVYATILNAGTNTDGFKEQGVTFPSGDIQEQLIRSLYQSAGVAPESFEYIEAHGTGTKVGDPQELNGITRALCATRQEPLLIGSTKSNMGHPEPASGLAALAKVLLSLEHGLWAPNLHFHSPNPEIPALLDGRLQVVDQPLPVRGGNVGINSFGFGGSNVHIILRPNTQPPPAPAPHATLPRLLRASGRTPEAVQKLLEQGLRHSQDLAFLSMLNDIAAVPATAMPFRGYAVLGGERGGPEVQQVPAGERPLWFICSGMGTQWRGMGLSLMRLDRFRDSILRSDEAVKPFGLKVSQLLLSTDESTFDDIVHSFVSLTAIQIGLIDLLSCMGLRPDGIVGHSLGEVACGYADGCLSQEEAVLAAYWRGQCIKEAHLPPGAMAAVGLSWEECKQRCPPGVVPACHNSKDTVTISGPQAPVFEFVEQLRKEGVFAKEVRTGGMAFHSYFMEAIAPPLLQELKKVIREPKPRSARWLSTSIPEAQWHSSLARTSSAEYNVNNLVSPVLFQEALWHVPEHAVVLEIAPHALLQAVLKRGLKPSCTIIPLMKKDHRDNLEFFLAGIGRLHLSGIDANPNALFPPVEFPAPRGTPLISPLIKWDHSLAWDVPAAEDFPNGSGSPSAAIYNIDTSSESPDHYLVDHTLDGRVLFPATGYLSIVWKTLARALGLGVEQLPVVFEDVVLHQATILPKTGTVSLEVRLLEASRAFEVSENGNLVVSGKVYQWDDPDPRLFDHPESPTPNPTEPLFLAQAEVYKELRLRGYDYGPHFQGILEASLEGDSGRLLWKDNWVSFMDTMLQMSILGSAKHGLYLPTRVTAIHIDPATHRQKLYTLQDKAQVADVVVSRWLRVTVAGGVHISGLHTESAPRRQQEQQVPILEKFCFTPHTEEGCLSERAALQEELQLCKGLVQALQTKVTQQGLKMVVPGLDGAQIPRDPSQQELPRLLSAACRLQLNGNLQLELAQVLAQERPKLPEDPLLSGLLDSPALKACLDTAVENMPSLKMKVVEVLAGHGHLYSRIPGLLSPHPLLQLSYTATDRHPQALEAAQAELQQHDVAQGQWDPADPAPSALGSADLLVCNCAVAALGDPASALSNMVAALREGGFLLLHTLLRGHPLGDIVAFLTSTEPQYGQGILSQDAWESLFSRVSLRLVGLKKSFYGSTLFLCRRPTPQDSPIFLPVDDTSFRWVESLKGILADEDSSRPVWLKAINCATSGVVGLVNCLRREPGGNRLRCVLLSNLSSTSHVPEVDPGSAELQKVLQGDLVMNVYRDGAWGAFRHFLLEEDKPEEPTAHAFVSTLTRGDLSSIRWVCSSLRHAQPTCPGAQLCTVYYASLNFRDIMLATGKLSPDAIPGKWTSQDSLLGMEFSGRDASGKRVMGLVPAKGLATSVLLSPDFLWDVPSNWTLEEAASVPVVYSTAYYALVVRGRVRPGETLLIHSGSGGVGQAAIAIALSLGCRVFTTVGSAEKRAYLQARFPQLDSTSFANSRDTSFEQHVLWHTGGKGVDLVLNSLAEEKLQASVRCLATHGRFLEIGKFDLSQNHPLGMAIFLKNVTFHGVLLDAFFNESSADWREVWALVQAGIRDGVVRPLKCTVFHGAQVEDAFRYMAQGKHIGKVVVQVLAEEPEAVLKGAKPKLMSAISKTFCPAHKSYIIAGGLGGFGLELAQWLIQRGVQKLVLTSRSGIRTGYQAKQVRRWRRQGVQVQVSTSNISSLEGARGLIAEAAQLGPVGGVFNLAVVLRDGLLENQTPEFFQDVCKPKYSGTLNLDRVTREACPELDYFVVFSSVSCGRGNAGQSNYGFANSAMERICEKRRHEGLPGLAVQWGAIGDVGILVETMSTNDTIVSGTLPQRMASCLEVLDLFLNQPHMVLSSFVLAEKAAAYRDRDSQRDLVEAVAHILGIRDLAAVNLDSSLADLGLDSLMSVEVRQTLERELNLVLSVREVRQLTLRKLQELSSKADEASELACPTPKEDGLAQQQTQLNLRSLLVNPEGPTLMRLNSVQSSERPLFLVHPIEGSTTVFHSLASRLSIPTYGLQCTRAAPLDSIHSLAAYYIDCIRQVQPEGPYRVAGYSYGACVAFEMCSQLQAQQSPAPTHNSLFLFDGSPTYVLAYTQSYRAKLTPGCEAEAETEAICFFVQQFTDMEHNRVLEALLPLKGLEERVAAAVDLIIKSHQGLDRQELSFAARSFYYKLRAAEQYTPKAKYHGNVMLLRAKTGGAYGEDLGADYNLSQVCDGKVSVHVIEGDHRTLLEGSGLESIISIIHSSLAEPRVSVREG

Abundance Ratio: (11) / (11 with PU-H71) ([1]; Exp3, FASN): 0.917
Abundance Ratio: (11) / (DMSO) ([1]; Exp3, FASN): 4.35
Abundances (Grouped): 11 ([1]; Exp3, FASN): 3505
Abundances (Grouped): 11 with PU-H71 ([1]; Exp3, FASN): 3823.4
Abundance Ratio: (11) / (DMSO) [1, 4]: 4.652
Abundance Ratio: (11) / (11 with PU-H71) [1, 5]: 0.931
Abundance Ratio: (11) / (11 with PU-H71) ([1]; sheet Exp2, FASN): 0.929
Abundance Ratio: (11) / (DMSO) ([1]; sheet Exp2, FASN): 4.46
Abundances (Grouped): 11 ([1]; sheet Exp2, FASN): 3656.7
Abundances (Grouped): 11 with PU-H71 ([1]; sheet Exp2, FASN): 3935.1
Abundance Ratio: (11) / (DMSO) [1, 6]: 4.491
Abundance Ratio: (11) / (11 with PU-H71) [1, 7]: 0.931
Abundance Ratio: (11) / (DMSO) [2, 4]: 2.538
Abundance Ratio: (11) / (11 with PU-H71) [2, 5]: 0.793
Abundance Ratio: (11) / (11 with PU-H71) ([2]; sheet Exp2, DECR1): 0.758
Abundance Ratio: (11) / (DMSO) ([2]; sheet Exp2, DECR1): 1.823
Abundances (Grouped): 11 ([2]; sheet Exp2, DECR1): 59.8
Abundances (Grouped): 11 with PU-H71 ([2]; sheet Exp2, DECR1, with PU-H71): 78.9
Abundance Ratio: (11) / (DMSO) [2, 6]: 2.151
Abundance Ratio: (11) / (11 with PU-H71) [2, 7]: 0.775
Abundance Ratio: (11) / (11 with PU-H71) ([3]; sheet Exp2, SLC25A13): 0.894
Abundance Ratio: (11) / (DMSO) ([3]; sheet Exp2, SLC25A13): 2.324
Abundances (Grouped): 11 ([3]; sheet Exp2, SLC25A13): 24.4
Abundances (Grouped): 11 with PU-H71 ([3]; sheet Exp2, SLC25A13, with PU-H71): 27.3
Abundance Ratio: (11) / (DMSO) [3, 6]: 2.324
Abundance Ratio: (11) / (11 with PU-H71) [3, 7]: 0.894
Structure (SMILES): CC(=O)Oc1ccc2c(c1)Oc1cc(OC(C)=O)ccc1C21OC(=O)c2cc(C(=O)NCCOCCOCCNC(=O)CCCC(=O)N(CC#N)S(=O)(=O)c3ccc(C(=O)NCCCn4c(Sc5cc6c(cc5I)OCO6)nc5c(N)ncnc54)cc3)ccc21 [compound 11]
